US8946283B2, “Composition for preventing or treating obesity, dyslipidemia, fatty liver or diabetes containing indole-3-carbinol derivative as active ingredient” (Industry-Academic Cooperation Foundation, Yonsei University, priority 2011, dated 2015)

What follows are molecules tested on 3T3-L1 cells (assay: Inhibition of adipocyte differentiation, Oil Red O staining of triglyceride). Conditions: 0.1, 1, 10, 50 and 100 μM, 14 days, vs DMSO control.
Type: cell-based, mouse
Procedure: Mouse adipocyte cell line (3T3-L1) was used to investigate the effect of various indole-3-carbinol derivatives on differentiation and growth of adipocytes. The preadipocytes, 3T3-L1 cells, were seeded on a 12-well plate and cultured to confluency using Dulbecco's modified Eagle's medium (DMEM) containing 1% penicillin-streptomycin, 1% nonessential amino acid and 10% fatal bovine serum (FBS), in a 5% CO2 incubator at 37° C. The 3T3-L1 cells grown to confluency were cultured for 2 days in MDI medium containing 0.5 mM isobutylmethylxanthine, 1 μM dexamethasone and 1 μg/mL insulin to differentiate them into adipocytes. Then, the cells were further cultivated in DMEM containing 1 μg/mL insulin to differentiate them into mature adipocytes. The cells were further cultured for 10 more days while replacing DMEM every other day to obtain fully differentiated adipocytes.
From the first day when MDI was added to the 3T3-L1 cells, 16 indole-3-carbinol derivative compounds were treated at concentrations of 0.1, 1, 10, 50 and 100 μM with 2-day intervals. The structure and molecular weight of the 16 indole-3-carbinol derivatives (B518, B521, B525, B528, B538, B540, B542, B544, B545, B546, B547, B549, B551, B556, B558 and B561) are described in Table 1. The derivative compounds were used after being dissolved in DMSO. Only DMSO was added to the negative control group.
After culturing for a total of 14 days, the medium was removed when the differentiation was completed and lipid droplets in the differentiated adipocytes were stained. For this, the cells were washed twice with phosphate buffered saline (PBS), fixed in 10% buffered neutral formalin (BNF) for 1 hour, washed once again with PBS, stained for 1 hour by adding 1 mL of Oil Red O dye, which specifically stains fat red, on the 12-well plate, and washed twice with distilled water. In order to measure the level of triglyceride contained in the differentiated 3T3-L1 cells, the stained lipid droplets were dissolved in 1 mL of isobutanol and optical density (OD) value was measured at 600 nm.

SMILES	differentiation of the preadipocytes 3T3L1
Cc1ccc(C)c(CN2C(=O)C(O)(c3c(C)[nH]c4ccccc34)c3ccccc32)c1 (stereo not shown) [B549, 1′-(2,5-Dimethylbenzyl)-3′-hydroxy-2-methyl-1′,3′-dihydro-1H,2′H-3,3′-biindol-2′-one]	reduced the differentiation of the preadipocytes 3T3L1 in a concentration-dependent manner
Cc1[nH]c2ccccc2c1C1(O)C(=O)N(CCc2ccccc2)c2ccc(Cl)cc21 (stereo not shown) [B547, 5′-Chloro-3′-hydroxy-2-methyl-1′-(2-phenylethyl)-1′,3′-dihydro-1H,2′H-3,3′-biindol-2′-one]	reduced the differentiation of the preadipocytes 3T3L1 in a concentration-dependent manner
Cc1ccc(OCCN2C(=O)C(O)(c3c(C)[nH]c4ccccc34)c3ccccc32)cc1 (stereo not shown) [B556, 3′-Hydroxy-2-methyl-1′-[2-(4-methylphenoxy)ethyl]-1′,3′-dihydro-1H,2′H-3,3′-biindol-2′-one]	reduced the differentiation of the preadipocytes 3T3L1 in a concentration-dependent manner
O=C1N(CCc2ccccc2)c2ccccc2C1(O)c1c[nH]c2ccccc12 (stereo not shown) [B538, 3′-Hydroxy-1′-(2-phenylethyl)-1′,3′-dihydro-1H,2′H-3,3′-biindol-2′-one]	reduced the differentiation of the preadipocytes 3T3L1 in a concentration-dependent manner
CN1C(=O)C(O)(c2c[nH]c3ccccc23)c2cc(Cl)ccc21 (stereo not shown) [B521, 5′-Chloro-3′-hydroxy-1′-methyl-1′,3′-dihydro-1H,2′H-3,3′-biindol-2′-one]	reduced the differentiation of the preadipocytes 3T3L1 in a concentration-dependent manner
Cc1[nH]c2ccccc2c1C1(O)C(=O)N(Cc2cccs2)c2ccccc21 (stereo not shown) [B551, 3′-Hydroxy-2-methyl-1′-(2-thienylmethyl)-1′,3′-dihydro-1H,2′H-3,3′-biindol-2′-one]	reduced the differentiation of the preadipocytes 3T3L1 in a concentration-dependent manner
CCCCN1C(=O)C(O)(c2c[nH]c3ccccc23)c2cc(Br)ccc21 (stereo not shown) [B540, 5′-Bromo-1′-butyl-3′-hydroxy-1′,3′-dihydro-1H,2′H-3,3′-biindol-2′-one]	reduced the differentiation of the preadipocytes 3T3L1 in a concentration-dependent manner
COc1ccccc1OCCN1C(=O)C(O)(c2c(C)[nH]c3ccccc23)c2ccccc21 (stereo not shown) [B558, 3′-Hydroxy-1′-[2-(2-methoxyphenoxy)ethyl]-2-methyl-1′,3′-dihydro-1H,2′H-3,3′-biindol-2′-one]	reduced the differentiation of the preadipocytes 3T3L1 in a concentration-dependent manner
CC(=O)c1[nH]c2ccccc2c1C(=O)O [B561, 2-Acetyl-1H-indole-3-carboxylic acid]	reduced the differentiation of the preadipocytes 3T3L1 in a concentration-dependent manner
O=C1N(Cc2ccc(Cl)cc2)c2ccccc2C1(O)c1c[nH]c2ccccc12 (stereo not shown) [B546, 1′-(4-Chlorobenzyl)-3′-hydroxy-1′,3′-dihydro-1H,2′H-3,3′-biindol-2′-one]	reduced the differentiation of the preadipocytes 3T3L1 in a concentration-dependent manner
CCN1C(=O)C(O)(c2c[nH]c3ccccc23)c2cc(Br)ccc21 (stereo not shown) [B544, 5′-Bromo-1′-ethyl-3′-hydroxy-1′,3′-dihydro-1H,2′H-3,3′-biindol-2′-one]	reduced the differentiation of the preadipocytes 3T3L1 in a concentration-dependent manner
Cc1ccc(CN2C(=O)C(O)(c3c[nH]c4ccccc34)c3ccccc32)cc1 (stereo not shown) [B545, 3′-Hydroxy-1′-(4-methylbenzyl)-1′,3′-dihydro-1H,2′H-3,3′-biindol-2′-one]	reduced the differentiation of the preadipocytes 3T3L1 in a concentration-dependent manner
O=C1N(CCc2ccccc2)c2ccc(Br)cc2C1(O)c1c[nH]c2ccccc12 (stereo not shown) [B518, 5′-Bromo-3′-hydroxy-1′-(2-phenylethyl)-1′,3′-dihydro-1H,2′H-3,3′-biindol-2′-one]	reduced the differentiation of the preadipocytes 3T3L1 in a concentration-dependent manner
O=C1N(Cc2ccccc2)c2ccccc2C1(O)c1c[nH]c2ccccc12 (stereo not shown) [B542, 1′-Benzyl-3′-hydroxy-1′,3′-dihydro-1H,2′H-3,3′-biindol-2′-one]	reduced the differentiation of the preadipocytes 3T3L1 in a concentration-dependent manner

Same assay, conditions: 3T3-L1 cells, FIGS. 1-3

SMILES	triglyceride accumulation in cells
O=C1N(CCc2ccccc2)c2ccccc2C1(O)c1c[nH]c2ccccc12 (stereo not shown) [B538, 3′-Hydroxy-1′-(2-phenylethyl)-1′,3′-dihydro-1H,2′H-3,3′-biindol-2′-one]	effectively reduce triglyceride accumulation in cells
O=C1N(CCc2ccccc2)c2ccc(Br)cc2C1(O)c1c[nH]c2ccccc12 (stereo not shown) [B518, 5′-Bromo-3′-hydroxy-1′-(2-phenylethyl)-1′,3′-dihydro-1H,2′H-3,3′-biindol-2′-one]	effectively reduce triglyceride accumulation in cells
